Results taken from patent publication US20090149496A1, “INHIBITORS OF THE TASK-1 AND TASK-3 ION CHANNEL” (SANOFI-AVENTIS DEUTSCHLAND GMBH, priority 2006, published 2009).
“And” between values parts separate entries of the source, which are not always exact repeats. Identical values can stand only once. Counter-ions that a name gives are not always drawn.

Legend:
[1] = system: respiration; experiment: Respiratory minute volume in narcotized rats; format: in vivo, rat
Experimental: (§1) E) Investigation of the Effect on the Electromyographic Activity of the Genioglossus Muscle and the Respiratory Minute Volume in Rats
(§2) The compound of example 1 (R-enantiomer) and of example 2 was investigated for electromyographic activity of the genioglossus muscle and for respiration-stimulating effect on male urethane-chloralose-narcotized, vagotomized rats with a weight of from 250 to 300 g. For this purpose, the genioglossus EMG activity was measured by means of EMG electrodes. The respiration-stimulating effect was investigated by measuring the respiratory minute volume by means of a tracheal cannula. For the investigations, the rats were administered intravenously successively with 1, 3 and 10 mg/kg of the compound of example 1 (R-enantiomer) and of example 2, with glycofurol (50%) as the vehicle, at 15 minute intervals. CO2 was used as the positive control for the stimulation of the genioglossus activity and of the respiratory minute volume.

[2] = system: genioglossus muscle; experiment: Electromyographic activity of the genioglossus muscle in narcotized rats; format: in vivo, rat
Experimental: as §1, §2

[3] = molecular target: T1, TASK1 (human) (Homo sapiens, UniProt O14649); experiment: Activity on the TASK-1 channel with the FLIPR technique on CHO cells; format: cell-based; parameters: expressed in transfected cells; host or cells: CHO cells; settings: inhibition of human TASK-1 current, 10 μmol/l
Source text: B) Determination of the Activity on the TASK-1 Channel with the FLIPR Technique

[4] = molecular target: T2, TASK1 (mouse) (Mus musculus, UniProt O35111); experiment: Activity on the TASK-1 channel in Xenopus oocytes (two-microelectrode voltage clamp), mouse channel; format: cell-based; settings: mouse TASK-1 expressed in Xenopus oocytes, voltage jumps to 40 mV, pH 7.4, room temperature; read-out: IC50 (μmol) TASK1 (mouse)
T2 construct: expressed in transfected cells; host or cells: Xenopus laevis oocytes injected with in vitro synthesized RNA
Experimental: (§3) A) Determination of the Activity on the TASK-1 Channel in Xenopus Oocytes
(§4) Mouse or human TASK-1 channels were expressed in Xenopus oocytes. For this purpose, oocytes were first isolated from Xenopus levis and defolliculated. Subsequently, TASK-1-encoding RNA synthesized in vitro was injected into these oocytes. After two days of TASK-1 protein expression, TASK-1 currents were measured on the oocytes with the two-microelectrode voltage clamp technique. In this measurement, the TASK-1 channels were generally activated with voltage jumps lasting 250 ms to 40 mV. The bath was flushed with a solution of the following composition: NaCl 96 mM, KCl 2 mM, CaCl2 1.8 mM, MgCl2 1 mM, HEPES 5 mM (titrated to pH 7.4 with NaOH). These experiments were performed at room temperature. For data acquisition and analysis, the following were used: Geneclamp amplifier (Axon Instruments, Foster City, USA) and MacLab D/A converter and software (ADinstruments, Castle Hill, Australia). The inventive substances were tested by adding them to the bath solution in different concentrations. The effects of the substances were calculated as the percentage inhibition of the TASK-1 control current which was obtained when no substance was added to the solution. The data was subsequently fitted to the Hill equation in order to determine the half-maximum inhibitory concentrations (IC50 values) for the particular substances.

[5] = molecular target: T1, TASK1 (human); experiment: Activity on the TASK-1 channel in Xenopus oocytes (two-microelectrode voltage clamp), human channel; format: cell-based; parameters: expressed in transfected cells; host or cells: Xenopus laevis oocytes injected with in vitro synthesized RNA; settings: human TASK-1 expressed in Xenopus oocytes, voltage jumps to 40 mV, pH 7.4, room temperature; read-out: IC50 (μmol) TASK1 (human)
Experimental: as §3, §4

[6] = system: TASK-1; settings: cited from earlier work; for IC50: stated in the literature, read-out: IC50 value, blocker of TASK-1; for Effect on the TASK-1 channel (in words): therapeutic concentrations, literature

T2 sequence (O35111 whole entry): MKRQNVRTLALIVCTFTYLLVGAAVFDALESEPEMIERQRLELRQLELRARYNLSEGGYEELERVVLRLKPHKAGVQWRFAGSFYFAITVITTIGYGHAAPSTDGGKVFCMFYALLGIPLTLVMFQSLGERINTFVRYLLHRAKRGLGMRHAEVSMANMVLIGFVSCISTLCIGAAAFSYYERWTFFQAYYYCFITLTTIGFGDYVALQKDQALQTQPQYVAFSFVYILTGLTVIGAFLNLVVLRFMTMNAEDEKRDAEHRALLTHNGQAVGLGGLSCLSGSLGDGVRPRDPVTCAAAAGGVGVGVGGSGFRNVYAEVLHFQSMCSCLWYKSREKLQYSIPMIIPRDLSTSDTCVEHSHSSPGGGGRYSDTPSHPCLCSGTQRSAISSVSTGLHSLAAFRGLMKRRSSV
T1 sequence (O14649 whole entry): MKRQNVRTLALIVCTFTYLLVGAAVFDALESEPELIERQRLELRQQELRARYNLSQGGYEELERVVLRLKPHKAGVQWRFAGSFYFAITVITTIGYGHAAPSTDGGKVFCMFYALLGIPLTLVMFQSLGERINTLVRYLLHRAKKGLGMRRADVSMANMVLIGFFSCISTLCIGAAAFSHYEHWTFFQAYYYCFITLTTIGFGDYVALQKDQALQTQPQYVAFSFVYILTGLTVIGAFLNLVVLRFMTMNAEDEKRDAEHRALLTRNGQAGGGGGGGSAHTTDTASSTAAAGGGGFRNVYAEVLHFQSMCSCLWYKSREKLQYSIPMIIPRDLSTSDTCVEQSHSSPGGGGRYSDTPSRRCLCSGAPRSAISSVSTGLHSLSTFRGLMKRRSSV

Compound | inhibition at 10 µM [3] [%] | IC50 [4] [µM] | further results
O=C=O [CO2, reference compound] | – | – | Respiratory minute volume (mean) ([1]; 5% CO2 positive control): 237 mL/min and 209 mL/min; EMG activity of the genioglossus muscle (mean) ([2]; 5% CO2 positive control): 5.13 arbitrary units and 3.15 arbitrary units
CCCCS(=O)(=O)Nc1ccccc1C(=O)N[C@@H](CC)c1ccc(OC)nc1 [Example 1 (S-enantiomer), 2-(butyl-1-sulfonylamino)-N-[1(S)-(6-methoxypyridin-3-yl)propyl]benzamide] | 58 | 0.8 | –
COc1ccc(CC(=O)NCc2ccccc2-c2ccccc2C(=O)NCCc2cccnc2)cc1 [Example 2, N-(2-pyridin-3-ylethyl)-2′-{[2-(4-methoxyphenyl)acetylamino]-methyl}biphenyl-2-carboxamide] | 77 | 0.43 | Respiratory minute volume (mean) ([1]; 1 mg/kg intravenously): 253 mL/min; Respiratory minute volume (mean) ([1]; 3 mg/kg intravenously): 279 mL/min; Respiratory minute volume (mean) ([1]; 10 mg/kg intravenously): 291 mL/min; Effect on the respiratory minute volume (in words) ([1]; summary of tables 3 and 5): stimulate; EMG activity of the genioglossus muscle (mean) ([2]; 1 mg/kg intravenously): 3.15 arbitrary units; EMG activity of the genioglossus muscle (mean) ([2]; 3 mg/kg intravenously): 3.55 arbitrary units; EMG activity of the genioglossus muscle (mean) ([2]; 10 mg/kg intravenously): 3.82 arbitrary units; Effect on the electromyographic activity of the genioglossus muscle (in words) ([2]; summary of tables 2 and 4): stimulate; IC50 [5]: 0.57 µM
CC[C@H](NC(=O)c1cc(F)ccc1NS(=O)(=O)c1cccc2cccnc12)c1ccccc1 [Example 3, (S)-5-Fluoro-2-(quinoline-8-sulfonylamino)-N-(1-phenylpropyl)benzamide sodium salt] | 82 | – | –
CC[C@H](NC(=O)c1cc(OC)ccc1NS(=O)(=O)c1ccc(OC)cc1)c1ccccc1 [Example 4, (S)-5-Methoxy-2-(4-methoxybenzenesulfonylamino)-N-(1-phenylpropyl)benzamide] | – | 0.65 | –
C[C@H](OC(=O)NCc1ccccc1-c1ccccc1C(=O)NC[C@@H](C)O)c1ccccc1 [Example 5, N-(2-(R)-hydroxypropyl)-2′-(α-(S)-methylbenzyloxycarbonyl-aminomethyl)biphenyl-2-carboxamide] | 88 | 2.08 | –
COc1ccc(CC(=O)NCc2ccccc2-c2cc(Cl)ccc2C(=O)NCc2ccc(F)cc2F)cc1 [Example 6, N-(2,4-Difluorobenzyl)-5-chloro-2′-{[2-(4-methoxyphenyl)acetyl-amino]methyl}biphenyl-2-carboxamide] | 68 | 1.15 | –
CN(CCc1ccccn1)C(=O)c1ccccc1-c1ccccc1CNC(=O)OCc1ccccc1 [Example 7, Benzyl {2′-[methyl-(2-pyridin-2-ylethyl)carbamoyl]biphenyl-2-ylmethyl}carbamate] | 57 | 1.06 | –
COc1ccc(CC(=O)NCc2ccccc2-c2ccsc2C(=O)NCc2ccc(F)cc2F)cc1 [Example 8, N-(2,4-Difluorobenzyl)-3-(2-{[2-(4-methoxyphenyl)acetyl-amino]methyl}phenyl)thiophene-2-carboxamide] | 77 | 0.55 | –
COc1ccc(CC(=O)NCc2ccccc2-c2ccc(C(=O)NCc3ccc(F)cc3F)o2)cc1 [Example 9, N-(2,4-Difluorobenzyl)-5-(2-{[2-(4-methoxyphenyl)acetyl-amino]methyl}phenyl)furan-2-carboxamide] | 60 | 2.37 | –
COc1ccc(CC(=O)NCc2ccccc2-c2occc2C(=O)NCCC(C)C)cc1 [Example 10, N-(3-methylbutyl)-2-(2-{[2-(4-methoxyphenyl)acetyl-amino]methyl}phenyl)furan-3-carboxamide] | 61 | 1.19 | –
COc1ccc(CC(=O)NCc2ccccc2-c2sccc2C(=O)NCc2ccc(F)cc2F)cc1 [Example 11, N-(2,4-Difluorobenzyl)-2-(2-{[2-(4-methoxyphenyl)acetyl-amino]methyl}phenyl)thiophene-3-carboxamide] | 88 | 0.35 | –
C[C@H](OC(=O)NCc1ccccc1-c1cccnc1C(=O)NCCc1ccccn1)c1ccccc1 [Example 12, (S)-1-Phenylethyl {2-[2-(2-pyridin-2-ylethylcarbamoyl)pyridin-3-yl]benzyl}carbamate] | 73 | 3.36 | –
O=C(NCc1ccccc1-c1ncccc1C(=O)NCc1ccc(F)cc1F)OCc1ccccc1 [Example 14, Benzyl {2-[3-(2,4-Difluorobenzylcarbamoyl)pyridin-2-yl]benzyl}carbamate] | 50 | 2.9 | –
CC(C)CCNC(=O)c1cccc(-c2ccncc2CNC(=O)OCc2ccccc2)c1 [Example 15, Benzyl {4-[3-(3-methylbutylcarbamoyl)phenyl]pyridin-3-yl-methyl}carbamate] | 70 | 1.83 | –
COc1ccc(CCC(=O)NCc2ccccc2-c2cc(C(=O)NCCC(C)C)ccc2C)cc1 [Example 16, N-(3-Methylbutyl)-2′-{[3-(4-methoxyphenyl)propionylamino]methyl}-6-methylbiphenyl-3-carboxamide] | – | 2.77 | –
CCCCC/C=C\C/C=C\C/C=C\C/C=C\CCCC(=O)NCCO [anandamide] | – | – | IC50 [6]: 0.7 µM
CCN1CC(CCN2CCOCC2)C(c2ccccc2)(c2ccccc2)C1=O (stereo not shown) [doxapram] | – | – | IC50 [6]: 0.4 µM
FC(F)(F)C(Cl)Br (stereo not shown) [halothane] | – | – | Effect on the TASK-1 channel (in words) [6]: activation
FC(F)OC(Cl)C(F)(F)F (stereo not shown) [isoflurane] | – | – | Effect on the TASK-1 channel (in words) [6]: activation
CCCCC/C=C\C/C=C\C/C=C\C/C=C\CCCC(=O)N[C@H](C)CO [methanandamide] | – | – | IC50 [6]: 0.7 µM
